From article PMC12814486 (Bioorganic & medicinal chemistry, 2025)
≈ marks a conversion by molar mass, not a printed value.

Legend:
[1] = molecular target: T1, rat sEH (Rattus norvegicus, UniProt P80299); experiment: sEH inhibition assay; format: biochemical
T1 sequence (P80299 1-554): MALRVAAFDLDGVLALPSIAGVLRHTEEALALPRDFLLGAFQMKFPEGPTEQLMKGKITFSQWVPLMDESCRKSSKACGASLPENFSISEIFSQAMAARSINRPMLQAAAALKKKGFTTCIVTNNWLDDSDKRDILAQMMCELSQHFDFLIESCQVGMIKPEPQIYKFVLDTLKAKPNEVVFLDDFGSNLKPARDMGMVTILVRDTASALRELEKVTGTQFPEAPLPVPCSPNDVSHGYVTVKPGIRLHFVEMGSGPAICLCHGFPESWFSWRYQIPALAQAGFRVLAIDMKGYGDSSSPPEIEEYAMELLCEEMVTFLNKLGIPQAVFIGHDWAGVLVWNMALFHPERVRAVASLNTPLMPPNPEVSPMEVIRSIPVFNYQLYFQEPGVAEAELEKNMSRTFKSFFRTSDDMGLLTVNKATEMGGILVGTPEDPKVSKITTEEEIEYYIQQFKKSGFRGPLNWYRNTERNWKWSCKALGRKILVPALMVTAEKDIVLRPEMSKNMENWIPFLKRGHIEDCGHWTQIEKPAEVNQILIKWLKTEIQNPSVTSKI

[2] = molecular target: T2, EH3 (Homo sapiens, UniProt Q9H6B9); experiment: EH3 inhibition; format: biochemical; conditions: see Supplemental Data
T2 sequence (Q9H6B9 1-360): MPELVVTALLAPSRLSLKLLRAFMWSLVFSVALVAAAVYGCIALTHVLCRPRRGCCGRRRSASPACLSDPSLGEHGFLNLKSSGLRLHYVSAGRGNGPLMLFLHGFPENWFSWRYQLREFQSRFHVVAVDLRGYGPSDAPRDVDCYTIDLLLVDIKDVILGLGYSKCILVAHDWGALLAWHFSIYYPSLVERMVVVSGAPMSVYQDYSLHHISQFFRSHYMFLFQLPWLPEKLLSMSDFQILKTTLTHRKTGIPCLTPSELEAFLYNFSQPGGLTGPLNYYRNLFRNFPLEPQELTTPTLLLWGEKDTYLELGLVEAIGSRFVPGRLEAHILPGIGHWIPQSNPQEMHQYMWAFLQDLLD

[3] = molecular target: T3, microsomal EH (Homo sapiens, UniProt P07099); experiment: Microsomal EH inhibition; format: biochemical; conditions: see Supplemental Data
T3 sequence (P07099 1-455): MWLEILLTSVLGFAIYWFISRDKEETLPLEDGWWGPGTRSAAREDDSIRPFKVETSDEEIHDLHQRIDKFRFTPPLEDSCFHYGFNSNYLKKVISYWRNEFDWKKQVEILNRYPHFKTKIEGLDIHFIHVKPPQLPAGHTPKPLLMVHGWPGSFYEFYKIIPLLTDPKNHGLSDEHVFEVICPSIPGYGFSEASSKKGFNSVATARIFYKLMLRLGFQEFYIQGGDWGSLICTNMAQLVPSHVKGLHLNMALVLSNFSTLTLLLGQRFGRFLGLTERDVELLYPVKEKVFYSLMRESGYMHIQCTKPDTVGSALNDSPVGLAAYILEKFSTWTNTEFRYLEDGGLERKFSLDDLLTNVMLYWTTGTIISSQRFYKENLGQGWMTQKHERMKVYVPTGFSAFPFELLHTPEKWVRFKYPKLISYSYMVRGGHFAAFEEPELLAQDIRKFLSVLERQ

[4] = Solubility assay; format: physicochemical; conditions: sodium phosphate buffer, pH 7.4, aqueous buffer, kinetic from dmso stock
[5] = molecular target: T4, mouse sEH (Mus musculus, UniProt P34914); experiment: sEH inhibition assay; format: biochemical
T4 sequence (P34914 1-554): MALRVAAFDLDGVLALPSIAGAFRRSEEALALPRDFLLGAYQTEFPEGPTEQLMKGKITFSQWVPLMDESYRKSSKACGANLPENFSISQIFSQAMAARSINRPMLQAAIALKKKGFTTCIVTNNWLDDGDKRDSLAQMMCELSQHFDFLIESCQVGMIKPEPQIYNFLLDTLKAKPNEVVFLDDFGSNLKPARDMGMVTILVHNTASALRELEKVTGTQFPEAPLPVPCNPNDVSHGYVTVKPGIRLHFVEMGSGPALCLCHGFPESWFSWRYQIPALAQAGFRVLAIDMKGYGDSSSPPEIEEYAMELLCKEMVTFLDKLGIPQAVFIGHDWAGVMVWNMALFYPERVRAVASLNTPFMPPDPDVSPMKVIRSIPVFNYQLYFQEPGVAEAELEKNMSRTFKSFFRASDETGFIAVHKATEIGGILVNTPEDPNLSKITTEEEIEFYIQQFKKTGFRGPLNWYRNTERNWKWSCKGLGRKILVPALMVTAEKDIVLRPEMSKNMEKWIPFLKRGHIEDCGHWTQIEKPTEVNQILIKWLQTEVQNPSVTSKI

[6] = molecular target: T5, human FAAH (Homo sapiens, UniProt O00519); experiment: FAAH inhibition assay; format: biochemical
T5 sequence (O00519 1-579): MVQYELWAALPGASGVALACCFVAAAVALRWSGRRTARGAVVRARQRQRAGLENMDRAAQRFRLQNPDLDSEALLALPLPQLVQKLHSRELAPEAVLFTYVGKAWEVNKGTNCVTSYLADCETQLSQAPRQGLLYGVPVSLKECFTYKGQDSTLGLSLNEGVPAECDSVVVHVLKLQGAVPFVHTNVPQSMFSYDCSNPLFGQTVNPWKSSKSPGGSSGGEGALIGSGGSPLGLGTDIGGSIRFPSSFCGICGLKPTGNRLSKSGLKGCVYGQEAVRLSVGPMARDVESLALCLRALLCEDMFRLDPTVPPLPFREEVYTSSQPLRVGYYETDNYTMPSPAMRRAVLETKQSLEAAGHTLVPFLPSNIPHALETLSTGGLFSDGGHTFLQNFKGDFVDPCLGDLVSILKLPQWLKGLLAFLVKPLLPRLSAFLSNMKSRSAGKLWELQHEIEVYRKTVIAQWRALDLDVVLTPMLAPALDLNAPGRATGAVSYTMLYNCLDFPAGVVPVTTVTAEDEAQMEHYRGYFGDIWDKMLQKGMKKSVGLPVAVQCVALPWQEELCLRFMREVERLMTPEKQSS

[7] = molecular target: T6, human sEH (Homo sapiens, UniProt P34913); experiment: sEH inhibition assay; format: biochemical
T6 sequence (P34913 1-555): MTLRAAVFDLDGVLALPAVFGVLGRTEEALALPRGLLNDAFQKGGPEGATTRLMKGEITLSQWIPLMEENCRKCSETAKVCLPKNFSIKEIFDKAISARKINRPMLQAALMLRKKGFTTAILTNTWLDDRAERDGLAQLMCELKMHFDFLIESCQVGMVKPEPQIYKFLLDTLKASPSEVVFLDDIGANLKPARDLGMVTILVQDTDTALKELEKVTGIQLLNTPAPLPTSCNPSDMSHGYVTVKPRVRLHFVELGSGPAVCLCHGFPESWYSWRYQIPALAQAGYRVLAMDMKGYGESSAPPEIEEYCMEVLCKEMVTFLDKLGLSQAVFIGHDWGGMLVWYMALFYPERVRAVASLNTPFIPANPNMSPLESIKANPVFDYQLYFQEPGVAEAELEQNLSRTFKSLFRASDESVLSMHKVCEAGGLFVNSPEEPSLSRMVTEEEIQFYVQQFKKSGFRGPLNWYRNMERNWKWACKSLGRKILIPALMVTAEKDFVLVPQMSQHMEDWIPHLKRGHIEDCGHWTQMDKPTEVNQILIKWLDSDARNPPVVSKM

IC50 [1]: 21.8 nM
inhibition of EH3 [2]: does not inhibit
inhibition of microsomal EH [3]: does not inhibit
solubility [4]: 31 to 63 µM (≈ 17.3 to 35.1 µg/mL)
IC50 [5]: 9 nM
IC50 [6]: > 10000 nM
IC50 [7]: 19.4 nM
SMILES: COc1cn2c(-c3ccc(NC(=O)C4CCN(S(=O)(=O)c5ccccc5Cl)CC4)cc3)nnc2c(OC)n1 [Compound 4r, 1-((2-chlorophenyl)sulfonyl)-N-(4-(6,8-dimethoxy-[1,2,4]triazolo[4,3-a]pyrazin-3-yl)phenyl)piperidine-4-carboxamide]
